What follows are molecules tested against T1, CCK-A receptor (Rattus norvegicus, UniProt P30551) (assay: CCK-A receptor binding assay (displacement of 3H-L-364,718 from rat pancreas membranes)). Settings: 3H-L-364,718 0.2 nM, 37° C., 30 min, read-out: In vitro Binding Data IC50 CCK.
T1 construct: from tissue; host or cells: pancreas membranes of Sprague-Dawley rat
T1 sequence (P30551 1-444): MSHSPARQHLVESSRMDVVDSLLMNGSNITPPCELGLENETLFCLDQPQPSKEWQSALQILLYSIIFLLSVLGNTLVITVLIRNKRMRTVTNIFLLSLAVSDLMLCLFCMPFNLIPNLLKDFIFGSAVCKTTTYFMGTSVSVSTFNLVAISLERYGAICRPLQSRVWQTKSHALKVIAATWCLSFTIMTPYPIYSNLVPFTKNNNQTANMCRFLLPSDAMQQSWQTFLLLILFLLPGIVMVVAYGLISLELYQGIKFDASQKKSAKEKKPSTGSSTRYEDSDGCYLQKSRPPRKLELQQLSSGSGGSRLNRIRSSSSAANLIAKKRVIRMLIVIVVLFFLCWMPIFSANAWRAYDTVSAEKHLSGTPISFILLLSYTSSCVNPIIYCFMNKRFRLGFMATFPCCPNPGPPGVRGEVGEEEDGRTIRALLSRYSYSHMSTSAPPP
Set-up: species or system Sprague-Dawley rat
Protocol: Washer Buffer (for use with Brandel Cell Harvester):
30 liters of 50 mM Tris, ph 7.7: Dissolve 181.7 g. Tris base in 4 1. deionized water at room temperature. Adjust pH to 7.7 with 6 N HCl and Q.S. to 30 1.
50 mM Tris-Cl, 5 mM MgCl2, 5 mM dithio-thretiol, 0.14 mg/ml bacitracin, and 2 mg/ml bovine serum albumin.
1 liter of 5X stock buffer:
30.28 g. Tris base per 800 ml D.I. water 5.09 g. MgCl2 6 H2 O, pH to 7.7 at room temperature with 6N HCl and Q.S. 1 liter, store at 4° C.
250 ml working buffer kept on ice:
50 ml of 5X stock buffer 0.1928 g. dithiothretiol (5 mM), 35 mg bacitracin (0.14 mg/ml), and 0.5 g. BSA (2mg/ml).
Unlabeled L-364,718(nonpeptide ligand):
Unlabeled L-364,718 (300 nM final concentration) is used to define nonspecific binding. A 3 mM solution is made in absolute ethanol and stored in a scintillation vial at -70° C. Aliquots are diluted 100-fold in the assay.
A Sprague-Dawley rat is sacrificed by asphyxiation with carbon dioxide and the pancreas removed. The tissue is immersed in cold wash buffer and carefully trimmed of fat, connective tissue, blood vessels, blotted and weighed. The tissue is homogenized in a Sorvall SS-34 centrifuge tube in 50 volumes of wash buffer using a Polytron at setting 7 for 15 seconds. The tissue is centrifuged (Sorvall SS-34) at 19,000 rpm for 10 min. The supernatant is poured off and the pellet resuspended in sufficient buffer to obtain a contraction of 40 mg tissue wet weight/ml. Separate aliquots (2,3ml) are placed in each of 8 centrifuge tubes and centrifuged as before. The supernatants are poured off and the pellets stored at -70° C. Stored pellets are sufficient for the assay of 160 tubes and are stable for 1-2 months.
During the assay the stored membranes are resuspended in 40 ml of assay buffer by scraping the pellet off the wall of the centrifuge tube and washing it into a teflon-glass homogenizer. Membranes are resuspended by 5 passes with the teflon pestle and the membranes stored on ice until ready for use.
Preparation of Compounds:
Compounds are prepared in DMSO (dimethyl sulfoxide) or in assay buffer. The majority of structures active as CCK antagonists generally require DMSO for complete solubility. Approximately 2-3 mg of compound is weighed directly into a 13×100 mm test tube and sufficient DMSO added to obtain a working stock solution at a concentration 100 fold greater than the highest concentration being tested in the assay. A total of 10 μl of each concentration of drug is added into a final volume of 1 ml to yield a 100 fold dilution of the, working stock solution. Control binding tubes ("totals and nonspecifics") are also treated with 10 μl DMSO.
^3 H-L-364,718 is obtained from New England Nuclear (Cat. #971) and is used as supplied. The final assay concentration of ^3 H-L-364,718 in assay buffer should be 0.2 nM in a final assay volume of 1 ml. ^3 H-L-364,718 (0.2 pmol) is added into the assay in a volume of 25 μl (8 nM working stock solution). The required dilution (usually>1000 fold) is obtained by dividing the working stock concentration into the concentration of the specific lot.
Samples are prepared in triplicate and a "total" (buffer addition) and "nonspecific" (300 nM unlabeled L-364,718) set of tubes included in each set of 24 tubes. The remaining 6 sets of triplicates are used either for screening or IC50 determinations. The order of addition is drugs-DMSO, buffer, unlabeled L-364,718, ^3 H-L-364,718, and to start the assay, membranes.
While tubes are incubating a shaking water bath at 37° C. for 30 min Brandel deposit/dispense filters are presoaked in wash buffer. Following the end of the incubation, sets of 24 tubes are rapidly washed with assay buffer as follows. Assay buffer is added to the incubation tubes to the height of the uppermost cross support in the standard Brandel test tube rack and the contents immediately aspirated. This process is repeated twice more, the filter removed, marked and the next set of 24 tubes processed. […]
`CC(C)C[C@H](NC(=O)[C@H]1Cc2c([nH]c3ccccc23)CN1C(=O)Nc1ccc(Cl)c(Cl)c1)C(=O)NCC(N)=O` [Example 28] showed an IC50 of 9 µM.
Work on `Cc1cccc(NC(=O)N2Cc3[nH]c4ccccc4c3C[C@@H]2C(=O)N[C@@H](CC(C)C)C(N)=O)c1` [Example 39, N-[(3R)-2-(3-methylphenylcarbamoyl)-1,2,3,4-tetrahydro-9H-pyrido[3,4-b]indole-3-carboxy]-L-leucinamide] yielded an IC50 of over 100 µM.
`CC(C)C[C@H](NC(=O)[C@H]1Cc2c([nH]c3ccccc23)CN1)C(=O)N[C@@H](CC(=O)OCc1ccccc1)C(N)=O` [Example 40] was tested, and the IC50 was 41 µM.
With `Cc1cccc(NC(=O)N2Cc3[nH]c4ccccc4c3C[C@@H]2C(=O)N[C@@H](CC(C)C)C(=O)N[C@@H](Cc2ccccc2)C(N)=O)c1` [Example 42] the IC50 was 4 µM.
With `CCOC(=O)c1ccc(NC(=O)[C@H]2Cc3c([nH]c4ccccc34)CN2C(=O)Nc2cccc(C)c2)cc1` [Example 43] the IC50 was 37 µM.
For `Cc1cccc(NC(=O)N2Cc3[nH]c4ccccc4c3C[C@@H]2C(=O)N2CCC[C@H]2C(=O)N[C@@H](CC(=O)O)C(N)=O)c1` [Example 44, N-[(3R)-2-(3-methylphenylcarbamoyl)-1,2,3,4-tetrahydro-9H-pyrido[3,4-b]indole-3-carboxyl]-L-prolyl-L-aspartic acid amide], the IC50 was 98 µM.
`Cc1cccc(NC(=O)N2Cc3[nH]c4ccccc4c3C[C@@H]2C(=O)N[C@H](CC(C)C)C(=O)N[C@H](CC(=O)O)C(N)=O)c1` [Example 45] gave an IC50 of 78 µM.
`CCCCCN(CCCCC)C(=O)[C@H](CC(=O)O)NC(=O)[C@H]1Cc2c([nH]c3ccccc23)CN1C(=O)Nc1cccc(C)c1` [Example 46, N-[(3R)-2-(3-methylphenylcarbamoyl)-1,2,3,4-tetrahydro-9H-pyrido[3,4-b]indole-3-carboxyl]-L-aspartic acid dipentyl amide] was tested, and the IC50 was 3.9 µM.
With `Cc1cccc(NC(=O)N2Cc3[nH]c4ccccc4c3C[C@H]2C(=O)N[C@H](CC(C)C)C(=O)N[C@H](CC(=O)O)C(N)=O)c1` [Example 49] the IC50 was 35 µM.
Work on `Cc1cccc(NC(=O)N2Cc3[nH]c4ccccc4c3C[C@@H]2C(=O)N[C@@H](CC(C)C)C(=O)N[C@@H](CC(N)=O)C(=O)O)c1` [Example 50] yielded an IC50 of 92 µM.
For `Cc1cccc(NC(=O)N2Cc3[nH]c4ccccc4c3C[C@@H]2C(=O)N[C@@H](CC(C)C)C(=O)N[C@H](CC(=O)O)C(N)=O)c1` [Example 51, N-[(3R)-2-(3-methylphenylcarbamoyl)-1,2,3,4-tetrahydro-9H-pyrido[3,4-b]indole-3-carboxyl]-L-leucyl-D-aspartic acid amide], the IC50 was 100 µM.
For `Cc1cccc(NC(=O)N2Cc3[nH]c4ccccc4c3C[C@H]2C(=O)N[C@H](CC(C)C)C(=O)N[C@@H](CC(=O)O)C(N)=O)c1` [Example 52], the IC50 was 53 µM.
`Cc1cccc(NC(=O)N2Cc3[nH]c4ccccc4c3C[C@@H]2C(=O)N(C)[C@@H](CC(C)C)C(=O)N[C@@H](CC(=O)O)C(N)=O)c1` [Example 53, N-[(3R)-2-(3-methylphenylcarbamoyl)-1,2,3,4-tetrahydro-9H-pyrido[3,4-b]indole-3-carboxyl]N'-methyl-L-leucine-L-aspartic acid amide] was tested, and the IC50 was 29 µM.
Molecule `Cc1cccc(C(=O)N2Cc3[nH]c4ccccc4c3C[C@@H]2C(=O)N[C@@H](CC(C)C)C(=O)N[C@@H](CC(=O)O)C(N)=O)c1` [Example 54] has an IC50 of over 100 µM.
For `CC(C)C[C@H](NC(=O)[C@H]1Cc2c([nH]c3ccccc23)CN1C(=O)Nc1ccc(Cl)cc1)C(=O)N[C@@H](CC(=O)O)C(N)=O` [Example 55, N-[(3R)-2-(4-chlorophenylcarbamoyl)-1,2,3,4-tetrahydro-9H-pyrido[3,4-b]indole-3-carboxyl]-L-leucyl-L-asartic acid amide], the IC50 was 48 µM.
`Cc1cccc(NC(=O)N2Cc3[nH]c4ccccc4c3C[C@@H]2C(=O)NCC(=O)N[C@@H](CC(=O)O)C(N)=O)c1` [Example 56, N-[(3R)-2-(3-methylphenylcarbamoyl)-1,2,3,4-tetrahydro-9H-pyido[3,4-b]indole-3-carboxyl]glycyl-L-aspartic acid amide] was tested, and the IC50 was 34 µM.
For `Cc1cccc(NC(=O)N2Cc3[nH]c4ccccc4c3C[C@@H]2C(=O)N[C@H](CC(C)C)C(=O)N[C@@H](CC(=O)O)C(N)=O)c1` [Example 57, N-[(3R)-2-(3-methylphenylcarbamoyl)-1,2,3,4-tetrahydro-9H-pyrido[3,4-b]indole-3-carboxyl]-D-leucyl-L-aspartic acid amide], the IC50 was 100 µM.
Molecule `Cc1cccc(NC(=O)N2Cc3[nH]c4ccccc4c3C[C@@H]2C(=O)N[C@@H](C)C(=O)N[C@@H](CC(=O)O)C(N)=O)c1` [Example 58] has an IC50 of 65 µM.
`CC(C)C[C@H](NC(=O)[C@H]1Cc2c([nH]c3ccccc23)CN1C(=O)Nc1cc(Cl)cc(Cl)c1)C(=O)N[C@@H](CC(=O)O)C(N)=O` [Example 59, N-[(3R)-2-(3,5-dichlorophenylcarbamoyl)-1,2,3,4-tetrahydro-9H-pyrido[3,4-b]indole-3-carboxyl]-L-leucyl-L-aspartic acid amide] showed an IC50 of 34 µM.
`Cc1cc(C)cc(NC(=O)N2Cc3[nH]c4ccccc4c3C[C@@H]2C(=O)N[C@@H](CC(C)C)C(=O)N[C@@H](CC(=O)O)C(N)=O)c1` [Example 60, N-[(3R)-2-(3,5-dimethylphenylcarbamoyl)-1,2,3,4-tetrahydro-9H-pyrido[3,4-b]indole-3-carboxyl]-L-leucyl-L-aspartic acid amide] showed an IC50 of 65 µM.
`COc1cccc(NC(=O)N2Cc3[nH]c4ccccc4c3C[C@@H]2C(=O)N[C@@H](CC(C)C)C(=O)N[C@@H](CC(=O)O)C(N)=O)c1` [Example 61] showed an IC50 of over 100 µM.
With `CC(C)C[C@H](NC(=O)[C@H]1Cc2c([nH]c3ccccc23)CN1C(=O)Nc1ccc2ccccc2c1)C(=O)N[C@@H](CC(=O)O)C(N)=O` [Example 62] the IC50 was 9.3 µM.
`CC(C)C[C@H](NC(=O)[C@H]1Cc2c([nH]c3ccccc23)CN1C(=O)Nc1cccc(C(F)(F)F)c1)C(=O)N[C@@H](CC(=O)O)C(N)=O` [Example 63] gave an IC50 of 86 µM.
`Cc1cccc(NC(=O)N2Cc3[nH]c4ccccc4c3C[C@@H]2C(=O)N[C@@H](COCc2ccccc2)C(=O)N[C@@H](CC(=O)O)C(N)=O)c1` [Example 64] gave an IC50 of 29 µM.
Molecule `CC(C)C[C@H](NC(=O)[C@H]1Cc2c([nH]c3ccccc23)CN1C(=O)Nc1cccc(F)c1)C(=O)N[C@@H](CC(=O)O)C(N)=O` [Example 65] has an IC50 of over 100 µM.
`CC(C)C[C@H](NC(=O)[C@H]1Cc2c([nH]c3ccccc23)CN1C(=O)Nc1ccc(Cl)c(Cl)c1)C(=O)N[C@@H](CC(=O)O)C(N)=O` [Example 66] gave an IC50 of 24 µM.
